Measurements published in ChEMBL document CHEMBL6153170 (J Med Chem, 2025).
Converted amounts (≈) assume the structure as drawn. The source made the active and inactive calls. The rule behind the calls is not given here.

Experiments:
B16-F10 [1] = assay: Downregulation of PD-L1 expression level in mouse B16-F10 cells at 0.1 to 2 uM incubated for 24 hrs by Western blot analysis; type: functional, cell-based; settings: dose 0.1-2 µM
[2] = target: Programmed cell death 1 ligand 1 (Mus musculus) (UniProt Q9EP73); assay: Binding affinity to C-terminal 6His-tagged recombinant mouse PD-L1 (1 to 238 residues) expressed in HEK293 cells assessed as change in secondary structure conformation at 2 uM incubated for 30 mins by CD spectra analysis; type: cell-based
[3] = Toxicity in C57BL/6 mouse model implanted with mouse B16-F10 cells assessed as morphological changes in heart at 20 mg/kg/day, ip administered for 14 days by H and E staining based analysis; type: organism-based; settings: in vivo, 336 h, time 14 day
B16-F10 [4] = assay: Antitumor activity against mouse B16-F10 cells implanted in C57BL/6 mouse model assessed as tumor growth inhibition at 20 mg/kg/day, ip co-administered with ACY-1215 for 14 days relative to control; type: functional; settings: B16-F10, 336 h, time 14 day, read-out: TGI
[5] = Toxicity in C57BL/6 mouse model implanted with mouse B16-F10 cells assessed as morphological changes in liver at 20 mg/kg/day, ip administered for 14 days by H and E staining based analysis; type: organism-based; settings: in vivo, 336 h, time 14 day
HepG2 [6] = assay: Cytotoxicity against human HepG2 cells assessed as reduction in cell viability at 3.3 to 10 uM incubated for 48 hrs by MTT assay; type: functional, cell-based; settings: dose 3.3-10 µM
B16-F10 [7] = assay: Antitumor immunity activity against mouse B16-F10 cells implanted in C57BL/6 mouse model assessed as CD3+ CD8+ T cell percentage in tumor at 20 mg/kg/day, ip co-administered with ACY-1215 for 14 days by flow cytometric analysis (reference value: 0.52 %); type: functional; settings: time 14 day
[8] = Cmax in male Sprague-Dawley rat at 10 mg/kg, po measured after 48 hrs by triple quadrupole mass spectrometric analysis; type: ADME, organism-based; settings: in vivo
[9] = AUC (0 to infinity) in male Sprague-Dawley rat at 2 mg/kg, iv measured after 48 hrs by triple quadrupole mass spectrometric analysis; type: ADME, organism-based; settings: in vivo
Jurkat [10] = assay: Effect on HDAC6 protein level in human Jurkat T cells at 0.1 to 2 uM incubated for 12 hrs by Western blot analysis; type: functional, cell-based; settings: dose 0.1-2 µM
[11] = Toxicity in C57 mouse assessed as myelosuppression by measuring hematocrit level at 20 mg/kg/day, IG administered for 14 days by heat map analysis; type: organism-based; settings: in vivo, po, 336 h, time 14 day
[12] = Half-life in male Sprague-Dawley rat at 2 mg/kg, iv measured after 48 hrs by triple quadrupole mass spectrometric analysis; type: ADME, organism-based; settings: in vivo
[13] = Apparent volume of distribution during terminal phase in male Sprague-Dawley rat at 10 mg/kg, po measured after 48 hrs by triple quadrupole mass spectrometric analysis; type: ADME, organism-based; settings: in vivo, read-out: Vz/F
[14] = target: Programmed cell death 1 ligand 1 (Mus musculus, UniProt Q9EP73); assay: Binding affinity to C-terminal 6His-tagged recombinant mouse PD-L1 (1 to 238 residues) expressed in HEK293 cells assessed as dissociation constant by SPR analysis
[15] = Toxicity in C57 mouse assessed as myelosuppression by measuring MCH level at 20 mg/kg/day, IG administered for 14 days by heat map analysis; type: organism-based; settings: in vivo, po, 336 h, time 14 day
B16-F10 [16] = assay: Effect on Histone H3 protein level in mouse B16-F10 cells at 0.1 to 2 uM incubated for 12 hrs by Western blot analysis; type: functional, cell-based; settings: dose 0.1-2 µM
HepG2 [17] = assay: cells; settings: Homo sapiens, HepG2, 48 h
[18] = Toxicity in C57 mouse assessed as myelosuppression by measuring neutrophil level at 20 mg/kg/day, IG administered for 14 days by heat map analysis; type: organism-based; settings: in vivo, po, 336 h, time 14 day
B16-F10 [19] = assay: Effect on HDAC6 protein level in mouse B16-F10 cells at 0.1 to 2 uM incubated for 12 hrs by Western blot analysis; type: functional, cell-based; settings: dose 0.1-2 µM
B16-F10 [20] = assay: Effect on STAT3 expression level in mouse B16-F10 cells at 0.1 to 2 uM incubated for 24 hrs by Western blot analysis; type: functional, cell-based; settings: dose 0.1-2 µM
[21] = MRT (0 to t) in male Sprague-Dawley rat at 2 mg/kg, iv measured after 48 hrs by triple quadrupole mass spectrometric analysis; type: ADME, organism-based; settings: in vivo
[22] = In vivo inhibition of PD-L1 in C57BL/6 mouse model implanted with mouse B16-F10 cells assessed as reduction in PD-L1 protein expression in tumor at 20 mg/kg/day, ip co-administered with ACY-1215 for 14 days by Western blot analysis relative to control; type: functional; settings: C57BL/6, B16-F10, 336 h, time 14 day
[23] = Toxicity in C57 mouse assessed as myelosuppression by measuring lymphocytes level at 20 mg/kg/day, IG administered for 14 days by heat map analysis; type: organism-based; settings: in vivo, po, 336 h, time 14 day
[24] = Toxicity in C57 mouse assessed as myelosuppression by measuring WBC level at 20 mg/kg/day, IG administered for 14 days by heat map analysis; type: organism-based; settings: in vivo, po, 336 h, time 14 day
[25] = Toxicity in C57 mouse assessed as myelosuppression by measuring platelet level at 20 mg/kg/day, IG administered for 14 days by heat map analysis; type: organism-based; settings: in vivo, po, 336 h, time 14 day
[26] = AUC (0 to t) in male Sprague-Dawley rat at 2 mg/kg, iv measured after 48 hrs by triple quadrupole mass spectrometric analysis; type: ADME, organism-based; settings: in vivo
Jurkat [27] = assay: cells; settings: Homo sapiens, 72 h
B16-F10 [28] = assay: Antitumor immunity activity against mouse B16-F10 cells implanted in C57BL/6 mouse model assessed as CD3+ CD4+ T cell percentage in tumor at 20 mg/kg/day, ip administered for 14 days by flow cytometric analysis (reference value: 0.095 %); type: functional; settings: time 14 day
[29] = Aqueous solubility of compound incubated for 24 hrs by miniaturized shake flask based HPLC analysis; type: physicochemical; settings: buffer
B16-F10 [30] = assay: Antitumor activity against mouse B16-F10 cells implanted in C57BL/6 mouse model assessed as reduction in tumor weight at 20 mg/kg/day, ip administered for 14 days; type: functional, organism-based; settings: time 14.0 day
HepG2 [31] = assay: Cytotoxicity against human HepG2 cells assessed as reduction in cell viability at 0.01 to 1 uM incubated for 48 hrs by MTT assay; type: functional, cell-based; settings: dose 0.01-1 µM
[32] = Apparent volume of distribution during terminal phase in male Sprague-Dawley rat at 2 mg/kg, iv measured after 48 hrs by triple quadrupole mass spectrometric analysis; type: ADME, organism-based; settings: in vivo
B16-F10 [33] = assay: Antitumor activity against mouse B16-F10 cells implanted in C57BL/6 mouse model assessed as reduction in tumor volume at 20 mg/kg/day, ip administered for 14 days; type: functional, organism-based; settings: time 14.0 day
[34] = Toxicity in C57BL/6 mouse model implanted with mouse B16-F10 cells assessed as morphological changes in kidney at 20 mg/kg/day, ip administered for 14 days by H and E staining based analysis; type: organism-based; settings: in vivo, 336 h, time 14 day
[35] = Toxicity in C57 mouse assessed as change in TBIL level at 20 mg/kg/day, IG administered for 14 days by heat map analysis; type: organism-based; settings: in vivo, po, 336 h, time 14 day
[36] = MRT (0 to infinity) in male Sprague-Dawley rat at 10 mg/kg, po measured after 48 hrs by triple quadrupole mass spectrometric analysis; type: ADME, organism-based; settings: in vivo

Sequence of Programmed cell death 1 ligand 1 (Q9EP73 whole entry, the tested form may be a part): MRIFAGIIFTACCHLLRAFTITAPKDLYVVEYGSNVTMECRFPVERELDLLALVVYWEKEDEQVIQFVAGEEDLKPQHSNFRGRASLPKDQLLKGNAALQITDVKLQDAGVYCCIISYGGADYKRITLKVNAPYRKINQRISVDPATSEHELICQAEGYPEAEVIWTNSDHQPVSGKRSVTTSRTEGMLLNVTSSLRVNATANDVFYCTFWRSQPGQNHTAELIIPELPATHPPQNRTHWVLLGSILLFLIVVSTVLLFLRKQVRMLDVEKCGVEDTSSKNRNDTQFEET
Sequence of Programmed cell death 1 ligand 1 (Mus musculus) (Q9EP73 whole entry, the tested form may be a part): as above

Compound: COc1nc(-c2cccc(-c3ccccc3)c2C)ccc1CNCCCCCCC(=O)NO
- Activity (B16-F10 [1]): Active
- Activity [2]: Active
- Activity [3]: Non-toxic
- inhibition in vivo at 20 mg/kg/day (B16-F10 [4]): 53.9%
- Activity [5]: Non-toxic
- Activity (HepG2 [6]): Active; Mild Cytotoxicity Observed
- Activity (B16-F10 [7]): 6.39%
- Cmax [8]: 0.194 µg/mL
- AUC(0-inf) [9]: 1.29 µg·h/mL
- Activity (Jurkat [10]): inactive
- Activity [11]: Non-toxic
- half-life [12]: 6.9 h
- Vd/F [13]: 31.9 L/kg
- Kd [14]: 0.0553 µM
- Activity [15]: Non-toxic
- Activity (B16-F10 [16]): inactive
- IC50 (HepG2 [17]): 3.4 µM
- Activity [18]: Non-toxic
- Activity (B16-F10 [19]): inactive
- Activity (B16-F10 [20]): inactive
- MRT last at 48 h [21]: 7.06 h
- inhibition in vivo at 20 mg/kg/day [22]: ~62%
- Activity [23]: Non-toxic
- Activity [24]: Non-toxic
- Activity [25]: Non-toxic
- AUC(0-t) at 48 h [26]: 1.14 µg·h/mL
- IC50 (Jurkat [27]): > 10 µM
- Activity (B16-F10 [28]): 11.5%
- solubility thermodynamic at 24 h [29]: 0.057 mg/mL (≈ 127 µM)
- Activity (B16-F10 [30]): Active
- Activity (HepG2 [31]): inactive
- Vz/F [32]: 8.99 L/kg
- Activity (B16-F10 [33]): Active
- Activity [34]: Non-toxic
- Activity [35]: Non-toxic
- MRT inf [36]: 19.3 h
